Test results: patent US7153858B2, “Arylpiperazinyl compounds” (Epix Delaware, Inc., priority 2003, dated 2006)
Where a name gives a salt, the structure may show the parent alone. Read-outs that look alike come from different tables or passages of the source.

Legend:
Assay type in all cases: binding
[1] = target: T1, 5-HT1A (Homo sapiens, UniProt P08908); assay: 5-HT1A receptor affinity (Ki), Table 1
T1 sequence (P08908 1-422): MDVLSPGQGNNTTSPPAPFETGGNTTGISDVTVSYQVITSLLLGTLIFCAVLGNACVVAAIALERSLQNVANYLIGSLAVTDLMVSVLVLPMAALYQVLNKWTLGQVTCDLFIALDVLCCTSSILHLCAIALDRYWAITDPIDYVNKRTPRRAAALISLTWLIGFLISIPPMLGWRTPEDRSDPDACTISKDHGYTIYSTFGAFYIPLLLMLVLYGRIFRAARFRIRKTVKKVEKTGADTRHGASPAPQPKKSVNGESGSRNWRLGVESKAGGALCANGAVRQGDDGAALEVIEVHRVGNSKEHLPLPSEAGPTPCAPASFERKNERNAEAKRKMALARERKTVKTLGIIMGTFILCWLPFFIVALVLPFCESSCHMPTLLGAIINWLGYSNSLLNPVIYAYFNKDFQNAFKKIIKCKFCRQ

[2] = tested on: α2; assay: α2 cross-reactivity (% inhibition / Ki), Table 1
[3] = tested on: α1; assay: α1 cross-reactivity (% inhibition / Ki), Table 1

| Compound | Ki ([1]; read-out: 5-HT1A (Ki)) [nM] | α2 % inhibition [2] [%] | α1 % inhibition [3] [%] | Ki [2] [nM] | α2 % inhibition ([2]; HCl salt) [%] | α1 % inhibition ([3]; HCl salt) [%] | Ki ([1]; 5-HT1A (Ki)) [nM] |
| --- | --- | --- | --- | --- | --- | --- | --- |
| Cc1ccc(S(=O)(=O)NCCCCN2CCN(c3cccc(NC(=O)C(C)(C)C)c3)CC2)cc1 [2,2-Dimethyl-N-(3-{4-[4-(toluene-4-sulfonylamino)-butyl]-piperazin-1-yl}-phenyl)-propionamide] | – | 11 | 0 | – | – | – | – |
| Cc1ccc(S(=O)(=O)NCCCCN2CCN(c3cccc(NS(=O)(=O)C(C)C)c3)CC2)cc1 [4-Methyl-N-(4-{4-[3-(propane-2-sulfonylamino)-phenyl]-piperazin-1-yl}-butyl)-benzenesulfonamide] | 78 | <10 | 15 | – | – | – | – |
| Cc1ccc(S(=O)(=O)NCCCCN2CCN(c3ccccc3)CC2)cc1 [4-Methyl-N-[4-(4-phenyl-piperazin-1-yl)-butyl]-benzenesulfonamide] | 40 | 90 | 98 | – | – | – | – |
| Cc1ccc(S(=O)(=O)NCCCCN2CCN(c3cccc([N+](=O)[O-])c3)CC2)cc1 [4-Methyl-N-{4-[4-(3-nitro-phenyl)-piperazin-1-yl]-butyl}-benzenesulfonamide HCl salt] | 105 | – | – | – | 23 | 61 | – |
| Cc1ccc(S(=O)(=O)NCCCCN2CCN(c3cccc([N+](=O)[O-])c3)CC2)cc1 [4-Methyl-N-{4-[4-(3-nitro-phenyl)-piperazin-1-yl]-butyl}-benzenesulfonamide] | 125 | 14 | 56 | – | – | – | – |
| CN(C)c1cccc(N2CCN(CC3CCN(S(=O)(=O)c4ccc(F)cc4)CC3)CC2)c1 [(3-{4-[1-(4-Fluoro-benzenesulfonyl)-piperidin-4-ylmethyl]-piperazin-1-yl}-phenyl)-dimethyl-amine] | 507 | 0 | 74 | – | – | – | – |
| COc1ccccc1N1CCN(CCCCNS(=O)(=O)CC2CCCCC2)CC1 [C-Cyclohexyl-N-{4-[4-(2-methoxy-phenyl)-piperazin-1-yl]-buty] [C-Cyclohexyl-N-{4-[4-(2-methoxy-phenyl)-piperazin-1-yl]-butyl}-methanesulfonamide] | – | – | 98 | – | – | – | – |
| CN(C)c1cccc(N2CCN(CCCCNS(=O)(=O)CC3CCCCC3)CC2)c1 [C-Cyclohexyl-N-{4-[4-(3-dimethylamino-phenyl)-piperazin-1-yl]-butyl}-methanesulfonamide] | 110 | 25 | 85 | – | – | – | – |
| Cl.O=C(Nc1cccc(N2CCNCC2)c1)C1CC1 [Cyclopropanecarboxylic acid (3-piperazin-1-yl-phenyl)-amide HCl] | – | 14 | 0 | – | – | – | 4.6 |
| CC(=O)Nc1cccc(N2CCNCC2)c1.Cl [N-(3-Piperazin-1-yl-phenyl)-acetamide HCl] | – | 35 | 0 | – | – | – | 2.9 |
| CC(=O)Nc1cccc(N2CCN(CC3CCN(S(=O)(=O)C(C)C)CC3)CC2)c1 [N-(3-{4-[1-(Propane-2-sulfonyl)-piperidin-4-ylmethyl]-piperazin-1-yl}-phenyl)-acetamide] | 112 | <10 | <10 | – | – | – | – |
| CCCC(=O)Nc1cccc(N2CCN(CCCCNS(=O)(=O)c3ccc(C)cc3)CC2)c1 [N-(3-{4-[4-(Toluene-4-sulfonylamino)-butyl]-piperazin-1-yl}-phenyl)-butyramide] | 56 | 12 | 12 | – | – | – | – |
| Cc1ccc(S(=O)(=O)NCCCCN2CCN(c3cccc(NC(=O)C(C)C)c3)CC2)cc1 [N-(3-{4-[4-(Toluene-4-sulfonylamino)-butyl]-piperazin-1-yl}-phenyl)-isobutyramide] | 47 | 12 | 47 | – | – | – | – |
| CCC(=O)Nc1cccc(N2CCN(CCCCNS(=O)(=O)c3ccc(C)cc3)CC2)c1 [N-(3-{4-[4-(Toluene-4-sulfonylamino)-butyl]-piperazin-1-yl}-phenyl)-propionamide] | 213 | 31 | 0 | – | – | – | – |

Now from value to molecule, other results behind:

| Ki ([1]; read-out: 5-HT1A (Ki)) [nM] | α2 % inhibition [2] [%] | α1 % inhibition [3] [%] | Ki [2] [nM] | Compound | α2 % inhibition ([2]; HCl salt) [%] | α1 % inhibition ([3]; HCl salt) [%] | Ki ([1]; 5-HT1A (Ki)) [nM] |
| --- | --- | --- | --- | --- | --- | --- | --- |
| 21 | 68 | 42 | – | O=S(=O)(c1ccc(F)cc1)N1CCC(CN2CCN(c3ccccn3)CC2)CC1 [1-[1-(4-Fluoro-benzenesulfonyl)-piperidin-4-ylmethyl]-4-pyridin-2-yl-piperazine] | – | – | – |
| 6.5 | 51 | 81 | – | O=S(=O)(CC1CCCCC1)NCCCCN1CCN(c2ccccn2)CC1 [C-Cyclohexyl-N-[4-(4-pyridin-2-yl-piperazin-1-yl)-butyl]-methanesulfonamide] | – | – | – |
| 21 | 15 | 40 | – | Cc1ccc(S(=O)(=O)NCCCCN2CCN(c3cccc(NC(=O)C4CC4)c3)CC2)cc1 [Cyclopropanecarboxylic acid (3-{4-[4-(toluene-4-sulfonylamino)-butyl]-piperazin-1-yl}-phenyl)-amide] | – | – | – |
| 8.9 | <10 | 22 | – | O=C(Nc1cccc(N2CCN(CCCCNS(=O)(=O)CC3CCCCC3)CC2)c1)C1CC1 [Cyclopropanecarboxylic acid {3-[4-(4-cyclohexylmethanesulfonylamino-butyl)-piperazin-1-yl]-phenyl}-amide] | – | – | – |
| 13 | <10 | 49 | – | CC(=O)Nc1cccc(N2CCN(CC3CCN(S(=O)(=O)c4ccc(F)cc4)CC3)CC2)c1 [N-(3-{4-[1-(4-Fluoro-benzenesulfonyl)-piperidin-4-ylmethyl]-piperazin-1-yl}-phenyl)-acetamide] | – | – | – |
| 11 | 0 | 5 | – | CC(=O)Nc1cccc(N2CCN(CCCCNS(=O)(=O)CC(C)C)CC2)c1 [N-(3-{4-[4-(2-Methyl-propane-1-sulfonylamino)-butyl]-piperazin-1-yl}-phenyl)-acetamide] | – | – | – |
| 18 | <10 | 39 | – | CC(=O)Nc1cccc(N2CCN(CCCCNS(=O)(=O)c3ccc(F)cc3)CC2)c1 [N-(3-{4-[4-(4-Fluoro-benzenesulfonylamino)-butyl]-piperazin-1-yl}-phenyl)-acetamide] | – | – | – |
| 1.3 | 47 | 37 | 616 | CC(=O)Nc1cccc(N2CCN(CCCCN(C)S(=O)(=O)CC3CCCCC3)CC2)c1 [N-(3-{4-[4-(Cyclohexylmethanesulfonyl-methyl-amino)-butyl]-piperazin-1-yl}-phenyl)-acetamide] | – | – | – |
| 24 | 12 | <10 | – | CC(=O)Nc1cccc(N2CCN(CCCCNS(=O)(=O)C(C)C)CC2)c1 [N-(3-{4-[4-(Propane-2-sulfonylamino)-butyl]-piperazin-1-yl}-phenyl)-acetamide] | – | – | – |
| 10 | <10 | 13 | – | CC(=O)Nc1cccc(N2CCN(CC3CCN(S(=O)(=O)CC4CCCCC4)CC3)CC2)c1 [N-{3-[4-(1-Cyclohexylmethanesulfonyl-piperidin-4-ylmethyl)-piperazin-1-yl]-phenyl}-acetamide] | – | – | – |
| 5.1 to 11 | <10 | – | – | CC(=O)Nc1cccc(N2CCN(CCCCNS(=O)(=O)CC3CCCCC3)CC2)c1 [N-{3-[4-(4-Cyclohexylmethanesulfonylamino-butyl)-piperazin-1-yl]-phenyl}-acetamide] | – | – | – |
